# Data published in US20260272879A1, “ANION-BINDING AROMATIC OLIGOAMIDE MACROCYCLES AND METHODS OF MAKING AND USING SAME” (The Research Foundation for The State University of New York, priority 2023, published 2026).
# Experiments:
# [1] = 1H NMR titration, binding of BF4^−; details: DMSO-d6:CDCl3 (15:85, v/v), 25° C., NMR titration (protons a and b)
# Protocol: (§1) ^1H NMR titration methods. Titrations of c5a and c5b with anions as their tetra-n-butylammonium (TBA), tetra-ethylammonium (TEA) and tetra-methylammonium (TMA) salts were carried out by ^1H NMR (400 MHz) at 25° C. 0.4 mL of corresponding hosts solutions were prepared in the rubber-cap NMR tubes. Aliquots of concentrated guest solution containing hosts were added into the NMR tubes using 20 microliter pipette. An initial ^1H NMR spectrum was collected and additional spectra were obtained after each injection of guest solution. All titration ^1H NMR spectra were stacked together and the chemical shifts of the internal aromatic CH proton were then fitted to 1:1 binding model using BindFit v0.5 (http://app.supramolecular.org/bindfit/) to evaluate binding constants to anions.
# [2] = 1H NMR titration, binding of ClO4^−; details: DMSO-d6:CDCl3 (15:85, v/v), 25° C.
# Protocol: as §1
# [3] = Isothermal titration calorimetry (ITC), ClO4^−; assay type: binding; details: 25° C.
# Protocol: (§2) Isothermal titration calorimetry (ITC) experiments were performed using a MicroCal VP-ITC. ITC experiments were conducted by adding ~1.5 mL of a solution containing c5a to the sample cell. Followed by titrating 10 μL aliquots of a solution containing the corresponding TBA·X salt (~10-14× concentration of c5a solution) from the syringe into the sample cell. Heats of dilution were obtained by titrating 10 μL aliquots of the TBA·X solution from the syringe into the sample cell in the absence of c5a. The heats of dilution were subtracted from the raw data. ITC data processing and curve fitting was done using the Origin program (MicroCal).
# (§3) Two-step competition ITC experiments for determining the Ka of c5a and iodide. In CH3CN:CHCl3 (5:95, v/v), the binding affinity of c5a for I^− was too high to be determined with direct NMR or ITC titration. Instead, two-step competition ITC experiments with Cl^− as the competitor were performed.
# [4] = Isothermal titration calorimetry (ITC), PF6^−; assay type: binding; details: 25° C.
# Protocol: as §2, §3
# [5] = Carrier vs channel chloride transport with DPPC LUVs; assay type: biochemical; details: HPTS
# Protocol: Differentiation of carrier vs channel chloride transport with DPPC LUVs. An aliquot (20 μL) DPPC LUVs (intravesicular components: 10 mM HEPES, 100 mM NaCl, pH 7.0) was added to 1.98 mL of a buffer comprised of 10 mM HEPES, 100 mM NaCl, pH 7, followed by incubating at 45° C. for 3 min. An aliquot (20 μL) of c5a (0.2 mM) in DMF was added to the LUVs, with the final concentration of c5a being […], and the solution was incubated for an additional 3 min at 45° C. LUVs with c5a were incubated either at 45° C. or 25° C. for 3 minutes.
smiles,measurement,setting,value
CCCCCCCCOCC(C)(C)C(=O)Nc1ccc2cc1C(=O)Nc1ccc(NC(=O)C(C)(C)COCCCCCCCC)c(c1)C(=O)Nc1ccc(NC(=O)C(C)(C)COCCCCCCCC)c(c1)C(=O)Nc1ccc(NC(=O)C(C)(C)COCCCCCCCC)c(c1)C(=O)Nc1ccc(NC(=O)C(C)(C)COCCCCCCCC)c(c1)C(=O)N2 [c5a],"Association constant Ka, 1:1 complex with BF4^−",[1],(4.73 ± 0.38) × 10^4 M^−1
same,"Association constant Ka, 1:1 complex with ClO4^−",[2]; single NMR titration (protons a and b),(5.74 ± 0.51) × 10^4 M^−1
same,"Association constant Ka, 1:1 complex with ClO4^−",[2]; triplicate NMR titrations (footnote c),(9.60 ± 0.76) × 10^4 ^c M^−1
same,"Association constant Ka, 1:1 complex with ClO4^−","[3]; DMSO-d6:CDCl3 (15:85, v/v) column, ITC measurements (footnote d)",(1.90 ± 0.02) × 10^4 ^d M^−1
same,"Association constant Ka, 1:1 complex with ClO4^−","[3]; DMSO:CHCl3 (5:95, v/v), ITC",(4.50 ± 0.50) × 10^5 M^−1
same,"Association constant Ka, 1:1 complex with PF6^−","[4]; CH3CN:CHCl3 (5:95, v/v)",(1.23 ± 0.17) × 10^7 M^−1
same,"Association constant Ka, 1:1 complex with PF6^−","[4]; DMSO:CHCl3 (5:95, v/v)",(2.80 ± 0.20) × 10^4 M^−1
same,chloride transport into DPPC LUVs,"[5]; 25° C. (gel phase), c5a pre-incubated at 45° C.",completely prohibited
same,chloride transport into DPPC LUVs,[5]; 45° C. (fluid phase),enhanced halide transport
